Patent US4076814A, “Preventive and curative compositions against mycoplasmosis” (Sankyo Company Limited, priority 1975, dated 1978)
≈ marks a conversion by molar mass, not a printed value.

Legend:
Mycoplasma gallisepticum = assay: Antimicrobial test, conventional agar plate dilution method, Mycoplasma gallisepticum; format: cell-based; conditions: Mycoplasmoides gallisepticum, read-out: Minimum Inhibitory Concentration, Mycoplasma gallisepticum
Excerpt: (§1) ANTIMICROBIAL TEST AGAINST THREE STRAINS OF MYCOPLASMA
(§2) The test was effected by a conventional agar plate dilution method using the indicated strains of mycoplasma. The dithiocarbamic acid derivatives as shown below with Compound Nos. were employed in the test.

Mycoplasma pulmonis = assay: Antimicrobial test, conventional agar plate dilution method, Mycoplasma pulmonis; format: cell-based; conditions: Mycoplasma, read-out: Minimum Inhibitory Concentration, Mycoplasma pulmonis
Excerpt: as §1, §2

Mycoplasma hyorhinis = assay: Antimicrobial test, conventional agar plate dilution method, Mycoplasma hyorhinis; format: cell-based; conditions: Mycoplasma, read-out: Minimum Inhibitory Concentration, Mycoplasma hyorhinis
Excerpt: as §1, §2

[1] = test system: MRL-4 strain of mycoplasma pulmonis; assay: Curative effect in mice infected with MRL-4 strain of mycoplasma pulmonis by oral administration in feed; format: in vivo; conditions: 10 days, after one month
Procedure: Each of the dithiocarbamic acid derivatives as indicated below with Compound No. was added to a feed and administered orally to mice infected artificially with MRL-4 strain of mycoplasma pulmonis. The effectiveness of the treatment was evaluated. Six groups, each group consisting of ten female mice which were negative in the test for mycoplasmosis, were used. After MRL-4 strain of mycoplasma pulmonis was cultured in PPLO agar medium, the colonies of the surface of the medium were diluted with a phosphate buffer solution to prepare a solution containing about 10^9 /ml of mycoplasma. 0.1 ml of the microbe-containing solution was injected intravenously to the tail of each mouse. For consecutive 10 days from the next day of the injection, the mice were fed with a powdery feed containing the active compound at respective concentrations of 0.04, 0.02, 0.01 and 0.005%, respectively. During the experiment period, all the procedures were conducted in a vinyl isolater.
After one month from the starting of the experiment, the presence of arthritis was visually investigated and at the same time the presence of pneumonia was also investigated after dissection. Recovery tests of mycoplasma and general bacteria were conducted using the joints and lungs of host subjects as the testing materials.

Row | SMILES | MIC (Mycoplasma gallisepticum) [µg/mL] | MIC (Mycoplasma pulmonis) [µg/mL] | MIC (Mycoplasma hyorhinis) [µg/mL] | Attack rate arthritis ([1]; 0.005% in feed) | Attack rate pneumonia ([1]; 0.005% in feed) | Recovery of mycoplasma joint ([1]; 0.005% in feed) | Recovery of mycoplasma lung ([1]; 0.005% in feed) | Attack rate arthritis ([1]; 0.01% in feed) | Attack rate pneumonia ([1]; 0.01% in feed) | Recovery of mycoplasma joint ([1]; 0.01% in feed) | Recovery of mycoplasma lung ([1]; 0.01% in feed) | Attack rate arthritis ([1]; 0.02% in feed) | Attack rate pneumonia ([1]; 0.02% in feed) | Recovery of mycoplasma joint ([1]; 0.02% in feed) | Recovery of mycoplasma lung ([1]; 0.02% in feed) | Attack rate arthritis ([1]; 0.04% in feed) | Attack rate pneumonia ([1]; 0.04% in feed) | Recovery of mycoplasma joint ([1]; 0.04% in feed) | Recovery of mycoplasma lung ([1]; 0.04% in feed)
1 | O=C1CCCCC1CSC(=S)N1CCOCC1 (stereo not shown) [Compound No. 12, 2-Oxocyclohexylmethyl 4-morpholinecarbodithioate] | 0.05 (≈ 0.183 µM) | 0.2 (≈ 0.731 µM) | 0.39 (≈ 1.43 µM) | 6/10 | 0/10 | 6/10 | 0/10 | 4/10 | 0/10 | 4/10 | 0/10 | 1/10 | 0/10 | 1/10 | 0/10 | 0/10 | 0/10 | 0/10 | 0/10
2 | CC(=O)CCSC(=S)N1CCCCC1 [compound 88, 2-Acetylethyl 1-piperidinecarbodithioate] | 0.05 (≈ 0.216 µM) | 0.05 (≈ 0.216 µM) | 0.025 (≈ 0.108 µM) | 3/10 | 0/10 | 3/10 | 0/10 | 1/10 | 0/10 | 1/10 | 0/10 | 0/10 | 0/10 | 0/10 | 0/10 | 0/10 | 0/10 | 0/10 | 0/10
3 | CCN(CC)C(=S)SCCC(C)=O [compound 79, 2-Acetylethyl diethyldithiocarbamate] | 0.012 (≈ 0.0547 µM) | 0.012 (≈ 0.0547 µM) | 0.012 (≈ 0.0547 µM) | 2/10 | 0/10 | 2/10 | 0/10 | 0/10 | 0/10 | 0/10 | 0/10 | 0/10 | 0/10 | 0/10 | 0/10 | 0/10 | 0/10 | 0/10 | 0/10
4 | CC(=O)CCSC(=S)N1CCN(C)CC1 [Compound No. 92, 2-Acetylethyl 4-methyl-1-piperazinecarbodithioate] | 0.2 (≈ 0.812 µM) | 0.2 (≈ 0.812 µM) | 0.025 (≈ 0.101 µM) |  |  |  |  |  |  |  |  |  |  |  |  |  |  |  | 
5 | CCN(CC)C(=S)SCc1c(C)cc2c(c1O)C1OCC34CCCC(C)(C)C3CCC(C)(O2)C14 (stereo not shown) [compound 266, 16-Diethylthiocarbamoylthiomethylsiccanin] | 0.1 (≈ 0.199 µM) | 0.1 (≈ 0.199 µM) | 0.1 (≈ 0.199 µM) |  |  |  |  |  |  |  |  |  |  |  |  |  |  |  | 
6 | Cc1cc2c(c(O)c1CSC(=S)N1CCN(C)CC1)C1OCC34CCCC(C)(C)C3CCC(C)(O2)C14 (stereo not shown) [compound 272, 16-(4-Methyl-1-piperazinethiocarbonylthiomethyl)-siccanin] | 0.39 (≈ 0.735 µM) | 0.39 (≈ 0.735 µM) | 0.39 (≈ 0.735 µM) |  |  |  |  |  |  |  |  |  |  |  |  |  |  |  | 
7 | CN(C)C(=S)SCc1oc(CO)cc(=O)c1O [compound 254, 5-Hydroxy-2-hydroxymethyl-4-oxo-4H-pyran-6-ylmethyl dimethyldithiocarbamate] | 0.39 (≈ 1.42 µM) | 0.39 (≈ 1.42 µM) | 0.39 (≈ 1.42 µM) |  |  |  |  |  |  |  |  |  |  |  |  |  |  |  | 
8 | CN(C)C(=S)SCc1cc(C(C)(C)C)c(O)c(C(C)(C)C)c1 [compound 211, 4-Hydroxy-3,5-di-t-butylbenzyl dimethyldithio carbamate] | 0.78 (≈ 2.3 µM) | 0.78 (≈ 2.3 µM) | 0.39 (≈ 1.15 µM) |  |  |  |  |  |  |  |  |  |  |  |  |  |  |  | 
9 | CN(C)C(=S)SCc1cc(Cl)c(O)c(Cl)c1 [compound 232, 4-Hydroxy-3,5-dichlorobenzyl dimethyldithiocarbamate] | 0.39 (≈ 1.32 µM) | 0.39 (≈ 1.32 µM) | 0.2 (≈ 0.675 µM) |  |  |  |  |  |  |  |  |  |  |  |  |  |  |  | 
10 | CC1=C(C=CC(=O)CCSC(=S)N(C)C)C(C)(C)CCC1 [compound 146, 2-[β-(2,6,6-Trimethylcyclohexene-1-yl)acryloyl]-ethyl dimethyldithiocarbamate] | 0.39 (≈ 1.2 µM) | 0.39 (≈ 1.2 µM) | 0.39 (≈ 1.2 µM) |  |  |  |  |  |  |  |  |  |  |  |  |  |  |  | 
11 | CCN(CC)C(=S)SCc1cc(C)cc(C)c1O [compound 198, 2-Hydroxy-3,5-dimethylbenzyl diethyldithiocarbamate] | 0.39 (≈ 1.38 µM) | 0.39 (≈ 1.38 µM) | 0.2 (≈ 0.706 µM) |  |  |  |  |  |  |  |  |  |  |  |  |  |  |  | 

Second part, led by results:

Row | MIC (Mycoplasma gallisepticum) [µg/mL] | MIC (Mycoplasma pulmonis) [µg/mL] | MIC (Mycoplasma hyorhinis) [µg/mL] | SMILES | Attack rate arthritis ([1]; 0.005% in feed) | Attack rate pneumonia ([1]; 0.005% in feed) | Recovery of mycoplasma joint ([1]; 0.005% in feed) | Recovery of mycoplasma lung ([1]; 0.005% in feed) | Attack rate arthritis ([1]; 0.01% in feed) | Attack rate pneumonia ([1]; 0.01% in feed) | Recovery of mycoplasma joint ([1]; 0.01% in feed) | Recovery of mycoplasma lung ([1]; 0.01% in feed) | Attack rate arthritis ([1]; 0.02% in feed) | Attack rate pneumonia ([1]; 0.02% in feed) | Recovery of mycoplasma joint ([1]; 0.02% in feed) | Recovery of mycoplasma lung ([1]; 0.02% in feed) | Attack rate arthritis ([1]; 0.04% in feed) | Attack rate pneumonia ([1]; 0.04% in feed) | Recovery of mycoplasma joint ([1]; 0.04% in feed) | Recovery of mycoplasma lung ([1]; 0.04% in feed)
12 | 0.05 (≈ 0.178 µM) | 0.2 (≈ 0.711 µM) | 0.39 (≈ 1.39 µM) | CCN(CC)C(=S)SCCC(=O)c1ccccc1 [compound 24, 2-Benzoylethyl diethyldithiocarbamate] | 4/10 | 0/10 | 4/10 | 0/10 | 3/10 | 0/10 | 3/10 | 0/10 | 2/10 | 0/10 | 2/10 | 0/10 | 0/10 | 0/10 | 0/10 | 0/10
13 | 0.05 (≈ 0.197 µM) | 0.025 (≈ 0.0987 µM) | 0.05 (≈ 0.197 µM) | CN(C)C(=S)SCCC(=O)c1ccccc1 [compound 23, 2-Benzoylethyl dimethyldithiocarbamate] |  |  |  |  |  |  |  |  |  |  |  |  |  |  |  | 
14 | 0.1 (≈ 0.374 µM) | 0.1 (≈ 0.374 µM) | 0.05 (≈ 0.187 µM) | Cc1cccc(C(=O)CCSC(=S)N(C)C)c1 [compound 56, 2-(m-Toluoyl)ethyl dimethyldithiocarbamate] |  |  |  |  |  |  |  |  |  |  |  |  |  |  |  | 
15 | 0.2 (≈ 0.682 µM) | 0.2 (≈ 0.682 µM) | 0.2 (≈ 0.682 µM) | O=C(CCSC(=S)N1CCCCC1)c1ccccc1 [compound 30, 2-Benzoylethyl 1-piperidinecarbodithioate] |  |  |  |  |  |  |  |  |  |  |  |  |  |  |  | 
16 | 0.2 (≈ 0.912 µM) | 0.2 (≈ 0.912 µM) | 0.2 (≈ 0.912 µM) | CC(C)C(=O)CCSC(=S)N(C)C [compound 104, 2-Isobutyrylethyl dimethyldithiocarbamate] |  |  |  |  |  |  |  |  |  |  |  |  |  |  |  | 
